Measurements: patent US11292791B2 (priority 2017, dated 2022)

target: T1, BRD4 (Homo sapiens (Human), UniProt O60885); assay: not given; conditions: read-out: BRD4 IC50 (μM gmean)

Compound	IC50
COC(=O)N1c2ccc3c(nc(CCn4cccn4)n3CC(=O)N(C)[C@H]3CCOC3)c2CC[C@@H]1C [Example 359]	1 to 1000 µM
COC(=O)N1c2ccc3c(nc(CCc4ccc(F)c(F)c4)n3[C@@H]3CCC[C@@H](C(=O)O)C3)c2CC[C@@H]1C [Example 509]	1 to 1000 µM
COC(=O)N1c2ccc3c(nc(Cc4ccccc4)n3CC3CCNCC3)c2CC[C@@H]1C [Example 93]	1 to 1000 µM
COC(=O)N1c2ccc3c(nc(C(=O)N(C)C4CCCC4)n3[C@@H]3CCC[C@@H](C(=O)O)C3)c2CC[C@@H]1C [Example 923]	1 to 1000 µM
COC(=O)N1c2ccc3c(nc(Cc4ccc(OC)cc4)n3C3CCC4(CC3)CNC4)c2CC[C@@H]1C [Example 108]	1 to 1000 µM
COC(=O)N1c2ccc3c(nc(CCc4ccc(C)c(F)c4)n3[C@@H]3CCC[C@@H](C(=O)O)C3)c2CC[C@@H]1C [Example 550]	1 to 1000 µM
COC(=O)N1c2ccc3c(nc(C4(N5CCCCC5=O)CC4)n3[C@@H]3CCC[C@@H](C(=O)O)C3)c2CC[C@@H]1C [Example 588]	1 to 1000 µM
COC(=O)N1c2ccc3c(nc(CC4CCN(C(C)=O)CC4)n3[C@@H]3CCC[C@@H](C(=O)O)C3)c2CC[C@@H]1C [Example 892]	1 to 1000 µM
COC(=O)N1c2ccc3c(nc(CCn4cccn4)n3CCN3CC[C@H](C(N)=O)C3)c2CC[C@@H]1C [Example 303]	1 to 1000 µM
COC(=O)N1c2ccc3c(nc(OCCn4cc(Cl)cn4)n3[C@@H]3CCC[C@@H](C(=O)O)C3)c2CC[C@@H]1C [Example 810]	1 to 1000 µM
COC(=O)N1c2ccc3c(nc(Cc4cccc(F)c4)n3[C@@H]3CCC[C@@H](C(=O)O)C3)c2CC[C@@H]1C [Example 601]	1 to 1000 µM
COC(=O)N1c2ccc3c(nc(Cc4cccc(F)c4OC)n3[C@H]3CC[C@H](C(=O)O)CC3)c2CC[C@@H]1C [Example 661]	1 to 1000 µM
COC(=O)N1c2ccc3c(nc(N(C)c4ccccc4)n3[C@@H]3CCC[C@@H](C(=O)O)C3)c2CC[C@@H]1C [Example 787]	1 to 1000 µM
COC(=O)N1c2ccc3c(nc(CC(C(=O)O)c4ccc(C)cc4)n3C3COCC(F)(F)C3)c2CC[C@@H]1C (stereo partly shown) [Example 913]	1 to 1000 µM
COC(=O)N1c2ccc3c(nc(CCn4cccn4)n3CC(=O)NCc3ccnc(O)c3)c2CC[C@@H]1C [Example 339]	1 to 1000 µM
COC(=O)N1c2ccc3c(nc(Cn4cc(C(C)C)cn4)n3[C@H]3CC[C@H](C(=O)O)CC3)c2CC[C@@H]1C [Example 714]	1 to 1000 µM
COC(=O)N1c2ccc3c(nc(CCc4ncc(C)o4)n3[C@H]3CC[C@H](C(=O)O)CC3)c2CC[C@@H]1C [Example 35]	1 to 1000 µM
COC(=O)N1c2ccc3c(nc(CCn4ccccc4=O)n3CC(=O)N[C@H]3CC[C@H](CO)CC3)c2CC[C@@H]1C [Example 377]	1 to 1000 µM
COC(=O)N1c2ccc3c(nc(CC(C(=O)O)c4ccccc4)n3C3CCCC(OC)C3)c2CC[C@@H]1C (stereo partly shown) [Example 475]	1 to 1000 µM
COC(=O)N1c2ccc3c(nc(CC(C(=O)O)c4ccc(C(C)C)cc4)n3C3CCCOC3)c2CC[C@@H]1C (stereo partly shown) [Example 888]	1 to 1000 µM
COC(=O)N1c2ccc3c(nc(C(C)Cn4cc(C(F)F)cn4)n3C3CCC(C(=O)O)CC3)c2CC[C@@H]1C (stereo partly shown) [Example 504]	1 to 1000 µM
COC(=O)N1c2ccc3c(nc(COC4CCCCC4)n3[C@H]3CC[C@H](C(=O)O)CC3)c2CC[C@@H]1C [Example 692]	1 to 1000 µM
COC(=O)N1c2ccc3c(nc(CCn4cccn4)n3CCN(C)[C@H]3CCOC3)c2CC[C@@H]1C [Example 302]	1 to 1000 µM
COC(=O)N1c2ccc3c(nc(C(C)Cn4cc(C)cn4)n3C3CCC(C(=O)O)CC3)c2CC[C@@H]1C (stereo partly shown) [Example 918]	1 to 1000 µM

Compound	IC50
COC(=O)N1c2ccc3c(nc(CC(C(=O)O)c4ccccc4)n3C3CCCC(OC)C3)c2CC[C@@H]1C (stereo partly shown) [Example 404]	1 to 1000 µM
COC(=O)N1c2ccc3c(nc(CCn4cccn4)n3CCNCc3cccnc3)c2CC[C@@H]1C [Example 294]	1 to 1000 µM
COC(=O)N1c2ccc3c(nc(CCn4cccn4)n3C3CCS(=O)(=O)CC3)c2CC[C@@H]1C [Example 262]	1 to 1000 µM
COC(=O)N1c2ccc3c(nc(CC(C(=O)O)c4ccc(C)cc4)n3C3COCC(F)(F)C3)c2CC[C@@H]1C (stereo partly shown) [Example 563]	1 to 1000 µM
COC(=O)N1c2ccc3c(nc(CCn4cccn4)n3CC(=O)N(C)CC(C)(C)O)c2CC[C@@H]1C [Example 361]	1 to 1000 µM
COC(=O)N1c2ccc3c(nc(CCn4ccccc4=O)n3CC(=O)N3CC[C@H](NC(C)=O)C3)c2CC[C@@H]1C [Example 398]	1 to 1000 µM
COC(=O)N1c2ccc3c(nc(Cc4ccccc4C(=O)O)n3C3CCOCC3)c2CC[C@@H]1C [Example 778]	1 to 1000 µM
COC(=O)N1c2ccc3c(nc(OCCc4ccccc4)n3[C@H]3CC[C@H](C(=O)O)CC3)c2CC[C@@H]1C [Example 807]	1 to 1000 µM
COC(=O)N1c2ccc3c(nc(CCn4cccn4)n3CCNCC(=O)N3CCCC3)c2CC[C@@H]1C [Example 300]	1 to 1000 µM
COC(=O)N1c2ccc3c(nc(CCn4cccn4)n3CC(=O)N[C@H](C)CO)c2CC[C@@H]1C [Example 349]	1 to 1000 µM
COC(=O)N1c2ccc3c(nc(Cc4cc(Cl)cc(OC)c4)n3[C@@H]3CCC[C@@H](C(=O)O)C3)c2CC[C@@H]1C [Example 512]	1 to 1000 µM
COC(=O)N1c2ccc3c(nc([C@@H](C)c4ccccc4)n3[C@H]3CC[C@H](C(=O)O)CC3)c2CC[C@@H]1C [Example 57, trans-4-[(7S)-6-(methoxycarbonyl)-7-methyl-2-[(1S)-1-phenylethyl]-3H,6H,7H,8H,9H-imidazo[4,5-f]quinolin-3-yl]cyclohexane-1-carboxylic Acid]	1 to 1000 µM
COC(=O)N1c2ccc3c(nc(CC(=O)N4CCCCC4)n3[C@@H]3CCC[C@@H](C(=O)O)C3)c2CC[C@@H]1C [Example 896]	1 to 1000 µM
COC(=O)N1c2ccc3c(nc(CC(C(=O)O)c4ccccc4)n3-c3cccc(OC)c3)c2CC[C@@H]1C (stereo partly shown) [Example 786]	1 to 1000 µM
COC(=O)N1c2ccc3c(nc(CCn4cccn4)n3CC(=O)NCc3ncco3)c2CC[C@@H]1C [Example 340]	1 to 1000 µM
COC(=O)N1c2ccc3c(nc(Cc4cc(Cl)cc(OC)c4)n3[C@H]3CC[C@H](C(=O)O)CC3)c2CC[C@@H]1C [Example 656]	1 to 1000 µM
COC(=O)N1c2ccc3c(nc(C(C)Cn4ccc(C)n4)n3C3CCCC(C(=O)O)C3)c2CC[C@@H]1C (stereo partly shown) [Example 485]	1 to 1000 µM
COC(=O)N1c2ccc3c(nc(C(O)CC4CCC(F)(F)CC4)n3C3CCCC(C(=O)O)C3)c2CC[C@@H]1C (stereo partly shown) [Example 596]	1 to 1000 µM
COC(=O)N1c2ccc3c(nc(CCn4ccccc4=O)n3CC(=O)NCCc3ccccn3)c2CC[C@@H]1C [Example 374]	1 to 1000 µM
COC(=O)N1c2ccc3c(nc(C(=O)Nc4ccccc4)n3[C@@H]3CCC[C@@H](C(=O)O)C3)c2CC[C@@H]1C [Example 948]	1 to 1000 µM
COC(=O)N1c2ccc3c(nc(Cc4ccc(OC)cc4)n3[C@H]3CC[C@H](C(=O)O)CC3)c2CC[C@@H]1C [Example 27]	1 to 1000 µM
COC(=O)N1c2ccc3c(nc(C(C)(O)c4ccccn4)n3C3CCCC(C(=O)O)C3)c2CC[C@@H]1C (stereo partly shown) [Example 749]	1 to 1000 µM
COC(=O)N1c2ccc3c(nc(CCn4cccn4)n3CCN3CCN(CCO)CC3)c2CC[C@@H]1C [Example 313]	1 to 1000 µM
COC(=O)N1c2ccc3c(nc(CCn4ccccc4=O)n3CC(=O)N3CCC(F)(F)C3)c2CC[C@@H]1C [Example 401]	1 to 1000 µM

target: T1, BRD4; assay: biochemical; conditions: BRD4 IC50 (μM gmean)

Compound	IC50
COC(=O)N1c2ccc3c(nc(Cc4ccccc4)n3CCC(N)=O)c2CC[C@@H]1C [Example 289, methyl (7S)-2-benzyl-3-(2-carbamoylethyl)-7-methyl-3H,6H,7H,8H,9H-imidazo[4,5-f]quinoline-6-carboxylate]	1 to 1000 µM
